Measured values from patent US8853206B2, “Triazolium salts as PAR1 inhibitors, production thereof, and use as medicaments” (Sanofi, priority 2008, dated 2014).
Where a name gives a salt, the structure may show the parent alone.

Experiments:
PAR1 [1] = target: T1, PAR1 (Homo sapiens (Human), UniProt P25116); assay: Inhibition of PAR1-mediated platelet aggregation induced by TRAP; type: cell-based; details: TRAP-induced aggregation of washed platelets from healthy volunteer donors, 96-well format
T1 sequence (P25116 22-425): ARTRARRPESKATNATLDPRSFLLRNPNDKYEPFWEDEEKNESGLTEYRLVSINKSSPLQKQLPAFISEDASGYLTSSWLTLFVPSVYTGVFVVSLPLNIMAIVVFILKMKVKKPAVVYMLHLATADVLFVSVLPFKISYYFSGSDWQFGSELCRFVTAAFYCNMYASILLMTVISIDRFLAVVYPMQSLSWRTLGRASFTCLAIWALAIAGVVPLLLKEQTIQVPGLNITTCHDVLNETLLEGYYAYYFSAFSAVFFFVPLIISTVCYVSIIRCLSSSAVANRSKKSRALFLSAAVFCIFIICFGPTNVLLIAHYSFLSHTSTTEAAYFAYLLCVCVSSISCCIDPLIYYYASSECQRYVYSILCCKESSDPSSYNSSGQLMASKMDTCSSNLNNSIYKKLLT
Protocol: PAR1 Determination Method: Inhibition of PAR1-Mediated Platelet Aggregation The pharmacological testing of the substances took place in platelet aggregation induced by TRAP (thrombin receptor-activating peptide) in 96-well format. For this purpose, blood was taken from healthy volunteer donors in 20 ml syringes containing 2 ml of 3.13% sodium citrate solution. After centrifugation at 150×g for 20 minutes, the platelet-rich plasma (PRP) was separated off and mixed with 1 μl of PGE1 solution (500 μg/ml in ethanol)/ml of PRP. Incubation at RT for 5 minutes was followed by centrifugation at 120×g for 15 minutes to remove the leukocytes. The leukocyte-free PRP was transferred in 5 ml portions into 15 ml PP tubes and centrifuged at 360×g for 15 minutes in order to pellet the platelets. The plasma was then decanted off and the platelet sediment from 5 ml of PRP was resuspended in 1 ml of Tyrode's (120 mM NaCl, 2.6 mM KCl, 12 mM NaHCO3, 0.39 mM NaH2PO4×H2O, 10 mM HEPES, 0.35% BSA, 5.5 mM glucose, pH 7.4) and adjusted with Tyrode's to a platelet count of 3×10^5/microliter (4). 13 ml of this cell suspension were then mixed with 866 μL of 10 mM CaCl2 solution, and 120 μL thereof were pipetted into each well of a 96-well plate containing 15 μL of the substance to be tested. After incubation at RT in the dark for 30 minutes, 15 μL of a TRAP solution (70-100 μM) were added as agonist, and kinetics were recorded at 650 nm in a SpectraMax 340 at 37° C. for 20 minutes while shaking. The areas under the curves of negative control (Tyrode's/DMSO) and positive control (15 μl of agonist/DMSO) were calculated and the difference was fixed as the 100% value. The substances to be tested were pipetted as serial dilutions in duplicate determination, the AUC was likewise determined for each substance concentration, and the % inhibition of the AUC compared with the control was calculated. On the basis of the % inhibition, the IC50 was calculated by nonlinear regression analysis according to the 4-parameter equation.

PAR1 [2] = target: T1, PAR1; assay: PAR1 binding test (radioligand displacement, membrane preparation); details: human PAR1 expressed in High Five insect cell membranes; radioligand 20 nM; read-out: Inhibition of binding IC50
Protocol: The synthesized substances were examined in a PAR1 binding test. This tested whether the substances can inhibit the binding of a radioactively labeled PAR1 agonist known from the literature at the PAR1 receptor (Ho-Sam Ahn, Mol Pharm, 51:350-356, 1997).
The human PAR1 receptor was expressed transiently in High Five insect cells. From these cells, after 48 hours, a membrane preparation was produced by standard methods, aliquoted into 10 mM Tris-HCl; 0.3 mM EDTA; 1 mM EGTA; 250 mM sucrose pH 7.5, and stored at −80° C.
The substances were preincubated with the membrane at RT for 15 minutes, then the radioligand (ALA-(para-F-Phe)-Arg-ChA-homoArg-(3,4-^3H-Tyr)-NH2; approx. 40 Ci/mMol) was added. The end concentration of the radioligand in the test buffer (50 mM Tris-HCl; 10 mM MgCl2; 1 mM EGTA; 0.1% BSA; 2% DMSO) was 20 nM, that of the membrane 1 mg/ml. After an incubation time of 60 minutes, 25 μL of the mixture were transferred to a 96-well MultiScreenHTS FB microtiter filtration plate (from Millipore), which had been pretreated beforehand with a 0.75% aqueous polyethyleneimine solution for 5 hours at RT. Thereafter, with vacuum extraction, each well was washed four times with 300 μL of buffer (50 mM Tris-HCl; 10 mM MgCl2; 1 mM EGTA). The plate was then dried overnight, 100 μl of scintillator per well were added, and the plate was analyzed after 6 hours in a Wallac MicroBeta (from PerkinElmer) liquid scintillation counter. The nonspecific binding was determined in the presence of 100 μM SCH79797 (PAR-1 antagonist; from Tocris, Cat. No. 1592) and subtracted from all measurements. The 100% value used was a control without inhibitor. The % inhibition values of a substance dilution series were used to calculate the IC50 with the aid of nonlinear regression analysis according to the 4-parameter equation.

For `CCOc1ccc2n(n1)c(N)n[n+]2CC(=O)c1cc(NC(C)=O)cc(S(F)(F)(F)(F)F)c1` [Example 1, 1-{2-[3-Acetylamino-5-(pentafluorosulfanyl)phenyl]-2-oxoethyl}-3-amino-6-ethoxy-[1,2,4]triazolo[4,3-b]pyridazin-1-ium trifluoroacetate], the IC50 (PAR1 [1]) was < 14 nM.

`CC(C)(C)c1cc(C(=O)C[n+]2nc(N)n3ccccc32)cc(C(C)(C)C)c1O` [Example 3, 3-Amino-1-[2-(3,5-di-tert-butyl-4-hydroxyphenyl)-2-oxoethyl]-[1,2,4]triazolo[4,3-a]pyridin-1-ium trifluoroacetate] was tested, and the IC50 (PAR1 [1]) was 1080 nM.

Work on `COc1c(N2CCOCC2)cc(C(=O)C[n+]2nc(N)n3cc(C(F)(F)F)ccc32)cc1C(C)(C)C` [Example 4, 3-Amino-1-[2-(3-tert-butyl-4-methoxy-5-morpholin-4-ylphenyl)-2-oxoethyl]-6-trifluoromethyl-[1,2,4]triazolo[4,3-a]pyridin-1-ium trifluoroacetate] yielded an IC50 (PAR1 [1]) of 126 nM.

Compound `CCOC(=O)c1cn2c(N)n[n+](CC(=O)c3cc(N4CCOCC4)c(OC)c(C(C)(C)C)c3)c2cc1OCC` [Example 8, 3-Amino-1-[2-(3-tert-butyl-4-methoxy-5-morpholin-4-yl-phenyl)-2-oxoethyl]-7-ethoxy-6-ethoxycarbonyl-[1,2,4]triazolo[4,3-a]pyridin-1-ium trifluoroacetate] has an IC50 (PAR1 [1]) of 4400 nM.

Compound `CCC(CC)Oc1ccc2n(n1)c(N)n[n+]2CC(=O)c1cc(OC)cc(S(F)(F)(F)(F)F)c1` [Example 26, 3-Amino-6-(1-ethylpropoxy)-1-{2-[3-methoxy-5-(pentafluorosulfanyl)phe-nyl]-2-oxoethyl}-[1,2,4]triazolo[4,3-b]pyridazin-1-ium trifluoroacetate] has an IC50 (PAR1 [1]) of 5 nM.

Work on `CCOCc1cc(C(=O)C[n+]2nc(N)n3nc(OC(CC)CC)ccc32)cc(C(C)(C)C)c1` [Example 27, 3-Amino-1-[2-(3-tert-butyl-5-ethoxymethylphenyl)-2-oxoethyl]-6-(1-ethylpropoxy)-[1,2,4]triazolo[4,3-b]pyridazin-1-ium chloride] yielded an IC50 (PAR1 [2]) of 152 nM.

Compound `CCOc1cc(C(=O)C[n+]2nc(N)n3nc(OC(CC)CC)ccc32)cc(C(C)(C)C)c1OCC` [Example 29, 3-Amino-1-[2-(3-tert-butyl-4,5-diethoxyphenyl)-2-oxoethyl]-6-(1-ethylpropoxy)-[1,2,4]triazolo[4,3-b]pyridazin-1-ium chloride] has an IC50 (PAR1 [2]) of 136 nM.

`CCOc1cc(C(=O)C[n+]2nc(N)n3nc(OC(CC)CC)ccc32)cc(C(C)(C)C)c1` [Example 32, 3-Amino-1-[2-(3-tert-butyl-5-ethoxyphenyl)-2-oxoethyl]-6-(1-ethylpropoxy)-[1,2,4]triazolo[4,3-b]pyridazin-1-ium chloride] showed an IC50 (PAR1 [1]) of 6 nM.

`CCC(CC)Oc1ccc2n(n1)c(N)n[n+]2CC(=O)c1cc(OCC2CC2)cc(C(C)(C)C)c1` [Example 35, 3-Amino-1-[2-(3-tert-butyl-5-cyclopropylmethoxyphen-yl)-2-oxoethyl]-6-(1-ethylpropoxy)-[1,2,4]triazolo[4,3-b]pyridazin-1-ium chloride] gave an IC50 (PAR1 [2]) of 132 nM.

Compound `CCC(CC)Oc1ccc2n(n1)c(N)n[n+]2CC(=O)c1cc(OC)c(OC)c(OCC2CCCCC2)c1` [Example 38, 3-Amino-1-[2-(3-cyclohexylmethoxy-4,5-dimethoxyphenyl)-2-oxoethyl]-6-(1-ethylpropoxy)-[1,2,4]triazolo[4,3-b]pyridazin-1-ium chloride] has an IC50 (PAR1 [1]) of 240 nM.

`CCCCOc1ccc2n(n1)c(N)n[n+]2CC(=O)c1cc(COC)cc(C(C)(C)C)c1` [Example 39, 3-Amino-6-butoxy-1-[2-(3-tert-butyl-5-methoxymethylphenyl)-2-oxoethyl]-[1,2,4]triazolo[4,3-b]pyridazin-1-ium chloride] gave an IC50 (PAR1 [1]) of 37 nM.

`CCC(CC)Oc1ccc2n(n1)c(N)n[n+]2CC(=O)c1cc(Cl)cc(OC)c1` [Example 40, 3-Amino-1-[2-(3-chloro-5-methoxyphenyl)-2-oxoethyl]-6-(1-ethylpropoxy)-[1,2,4]triazolo[4,3-b]pyridazin-1-ium chloride] was tested, and the IC50 (PAR1 [2]) was 601 nM.

For `CCC(CC)Oc1ccc2n(n1)c(N)n[n+]2CC(=O)c1cc(OC)cc(C(C)C)c1` [Example 46, 3-Amino-6-(1-ethylpropoxy)-1-]2-(3-isopropyl-5-methoxyphenyl)-2-oxoethyl]-[1,2,4]triazolo[4,3-b]pyridazin-1-ium chloride], the IC50 (PAR1 [2]) was 114 nM.

In the case of `CCC(CC)Oc1ccc2n(n1)c(N)n[n+]2CC(=O)c1cc(OC)cc(OCC2CCCCC2)c1` [Example 47, 3-Amino-1-[2-(3-cyclohexylmethoxy-5-methoxyphenyl)-2-oxoethyl]-6-(1-ethylpropoxy)-[1,2,4]triazolo[4,3-b]pyridazin-1-ium chloride], the IC50 (PAR1 [2]) is reported as 10000 nM.

With `CCC(CC)Oc1ccc2n(n1)c(N)n[n+]2CC(=O)c1cc(OCCOC)cc(C(C)(C)C)c1` [Example 54, 3-Amino-1-{2-[3-tert-butyl-5-(2-methoxyethoxy)phenyl]-2-oxoethyl}-6-(1-ethylpropoxy)-[1,2,4]triazolo[4,3-b]pyridazin-1-ium chloride] the IC50 (PAR1 [2]) was 85 nM.

`CCc1ccc2n(n1)c(N)n[n+]2CC(=O)c1cc(N2CCOCC2)c(OC)c(C(C)(C)C)c1` [Example 60, 3-Amino-1-[2-(3-tert-butyl-4-methoxy-5-morpholin-4-ylphenyl)-2-oxoethyl]-6-ethyl-[1,2,4]triazolo[4,3-b]pyridazin-1-ium trifluoroacetate] was tested, and the IC50 (PAR1 [2]) was 2100 nM.

For `CCOc1nn2c(NC)n[n+](CC(=O)c3cc(N4CCOCC4)c(OC)c(C(C)(C)C)c3)c2c(C)c1C` [Example 72, 1-[2-(3-tert-Butyl-4-methoxy-5-morpholin-4-ylphenyl)-2-oxoethyl]-6-ethoxy-7,8-dimethyl-3-methylamino-[1,2,4]triazolo[4,3-b]pyridazin-1-ium trifluoroacetate], the IC50 (PAR1 [2]) was 1700 nM.

`CCC(CC)Oc1nn2c(N)n[n+](CC(=O)c3cc(N4CCOCC4)c(OC)c(C(C)(C)C)c3)c2cc1C1CC1` [Example 76, 3-Amino-1-[2-(3-tert-butyl-4-methoxy-5-morpholin-4-ylphenyl)-2-oxoethyl]-7-cyclopropyl-6-(1-ethylpropoxy)-[1,2,4]triazolo[4,3-b]pyridazin-1-ium chloride] showed an IC50 (PAR1 [2]) of 1400 nM.

`CCOc1nn2c(N)n[n+](CC(=O)c3cc(OCCCO)c(OC)c(C(C)(C)C)c3)c2cc1CC` [Example 82, 3-Amino-1-{2-[3-tert-butyl-5-(3-hydroxypropoxy)-4-methoxyphenyl]-2-oxoethyl}-6-ethoxy-7-ethyl-[1,2,4]triazolo[4,3-b]pyridazin-1-ium chloride] was tested, and the IC50 (PAR1 [2]) was 8400 nM.
